Experimental data as given in patent US3966732A, “Nitroimidazolyl pyrimidines” (Schering Aktiengesellschaft, priority 1972, dated 1976).
Converted amounts (≈) assume the structure as drawn.

Assays:
Trichomonas vaginalis = assay: Minimum inhibitory concentration against Trichomonas vaginalis (own test); format: cell-based; details: comparison with metronidazole
trichomonads [1] = details: Lancini et al.; cited from earlier work
trichomonads [2] = details: Grunberg and Titsworth; cited from earlier work
[3] = Grunberg and Titsworth; cited from earlier work

Row | SMILES | MIC (Trichomonas vaginalis) [µg/mL] | further results
1 | Cc1nc(-c2ncc([N+](=O)[O-])n2C)nc2c1CCc1ccccc1-2 [2-(5-Nitro-1-methyl-2-imidazolyl)-4-methyl-5,6-dihydrobenzo[h]quinazoline] | 0.1 (≈ 0.311 µM) | –
2 | Cn1c([N+](=O)[O-])cnc1-c1nc(-c2cccs2)cc(C(F)(F)F)n1 [4-Trifluoromethyl-2-(5-nitro-1-methyl-2-imidazolyl)-6-(2-thienyl)-pyrimidin] | 0.2 (≈ 0.563 µM) | –
3 | O=[N+]([O-])c1ncc[nH]1 [azomycin, 2-nitroimidazole] | – | effectiveness in vitro compared with metronidazole (trichomonads [1]): no more effective in vitro than metronidazole; ED50 value (in words, versus metronidazole) (trichomonads [2]): considerably less favorable; LD50 value (in words, versus metronidazole) [3]: considerably less favorable
4 | Cc1ncc([N+](=O)[O-])n1CCO [Metronidazole, 5-nitro-2-methyl-1-(2-hydroxyethyl)-imidazole] | 1.6 (≈ 9.35 µM) | –

The next lines start with results.

Row | MIC (Trichomonas vaginalis) [µg/mL] | SMILES | further results
5 | 0.2 (≈ 0.677 µM) | Cc1cc(-c2ccccc2)nc(-c2ncc([N+](=O)[O-])n2C)n1 [4-Methyl-6-phenyl-2-(5-nitro-1-methyl-2-imidazolyl)pyrimidine] | –
6 | 0.4 (≈ 1.72 µM) | Cc1cc(C)nc(-c2ncc([N+](=O)[O-])n2C)n1 [4,6-Dimethyl-2-(5-nitro-1-methyl-2-imidazolyl)-pyrimidine] | –
